Experimental data reported in PubChem BioAssay (NCI).
Values joined by “and” are separate entries in the source; they are usually repeats but may differ in a detail not shown here. Identical values can stand only once.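 Dose response: 5 concentrations. Exposure: 48 h. Format: 96-well plates. Endpoint: linear interpolation; highest concentration if not reached. Here, GI50 denotes the concentration required for 50% inhibition of growth. The concentration for full growth arrest is given as TGI.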

What was measured:
Assay in all cases: NCI tumour cell line growth inhibition, 48 h
[1] = test system: SNB-19 CNS
[2] = test system: SF-539 CNS
[3] = test system: DMS 114 small cell lung
[4] = test system: DMS 273 small cell lung
[5] = test system: KM20L2 colon
[6] = test system: LXFL 529 NSCLC
[7] = test system: M19-MEL melanoma
[8] = test system: DLD-1 colon
[9] = test system: HOP-18 NSCLC
[10] = test system: P388 leukemia
[11] = test system: P388/ADR leukemia
[12] = test system: SN12K1 renal
[13] = test system: XF 498 CNS
[14] = test system: SNB-78 CNS
[15] = test system: RXF-631 renal

SMILES	TGI [1]	TGI [2]	other results
O=C(O)CNC(=O)c1ccc([As](=O)(O)O)cc1	> 100 µM		
O=C1C(Br)=Cc2c(Cl)sc(Cl)c21	50.7 µM	15.1 µM	
O=C1C(C=NCCc2c[nH]c3ccccc23)C(C(F)(F)F)=NN1c1nc2ccccc2s1 (stereo unspecified)	> 100 µM	86.4 µM	
CCN(CCCN(CC)C(=O)N[C@@H](Cc1ccccc1)C(=O)NC)C(=O)N[C@@H](Cc1ccccc1)C(=O)NC	> 100 µM	> 100 µM	
CSc1c(C(=O)Nc2ccc(C)cc2)c(N)[nH]c(=O)c1C#N	> 100 µM	> 100 µM	
NCCCC(N)C(=O)O (stereo unspecified)	> 100 µM		
CN(C)c1ccc(/C(Br)=C2\OC(=O)c3ccccc32)cc1	> 100 µM	> 100 µM	
Cc1ccc(C2=Nc3c(c(C)nn3-c3ccccc3)N=C(C(=O)O)C2)cc1	> 10 µM	> 10 µM	
O=C1NC(=S)NC(=O)C1C(c1ccccc1[N+](=O)[O-])C1C(=O)NC(=S)NC1=O	> 100 µM		
O=c1c2cc(I)ccc2[nH]c(=S)n1Cc1ccccc1	98.9 µM	33.4 µM	
CC(=O)/C(=C/n1c(=S)sc2ccccc21)C(=O)Nc1ccccc1C	> 100 µM	> 100 µM	
COc1cc2c(cc1OC)C(=O)/C(=C/c1cc(C)c(O)c(C)c1)C2	> 100 µM	> 100 µM	
O=C1CC(c2ccc([N+](=O)[O-])cc2)C2(C(=O)NC(=S)NC2=O)C(c2ccc([N+](=O)[O-])cc2)C1 (stereo unspecified)	43.5 µM	> 100 µM	
CN1CCN(C(=S)N(C)C(=O)c2ccc(Cl)cc2)CC1	> 100 µM		
CC(C)(CO)N1C(=O)c2ccccc2C1(O)c1ccc(Cl)cc1 (stereo unspecified)	> 100 µM		
Cc1cccc(N(CCC#N)S(=O)(=O)c2ccccc2)c1	> 100 µM	> 100 µM	
Cc1nc2ccc([N+](=O)[O-])cc2c(=O)n1C(=S)Nc1cccc(Cl)c1	> 100 µM	43.1 µM	
Brc1ccc2c3c1[C@@H]1O[C@@H]1c1cccc(c1-3)[C@@H]1O[C@H]21	60.9 µM	16.5 µM	
COC1C=CC23c4cc5c(cc4C(O)OC2CN(C)C3C1)OCO5 (stereo unspecified)	7.36 µM	3.65 µM	TGI [3]: 6.05 µM; TGI [4]: 6.87 µM; TGI [5]: 9.1 µM; TGI [6]: 9.55 µM; TGI [7]: 8.82 µM
CN(O)C(=O)Cc1ccc(OCc2cccc(Cl)c2)cc1	> 100 µM	> 100 µM	
CC(C)=CC1C(C(=O)O)C1(C)C (stereo unspecified)	> 750 µM	> 750 µM	TGI [8]: > 750 µM; TGI [3]: > 750 µM; TGI [4]: > 750 µM; TGI [9]: > 750 µM; TGI [5]: > 750 µM; TGI [7]: > 750 µM; TGI [10]: > 750 µM; TGI [11]: > 750 µM; TGI [12]: > 750 µM; TGI [13]: > 75 µM
CC(=O)CC(=O)c1cc2c(=O)oc(C)cc2oc1=O	> 37.5 µM	> 37.5 µM	
O=C1/C(=C/c2ccc([N+](=O)[O-])cc2)CNC/C1=C\c1ccc([N+](=O)[O-])cc1	10.6 µM	5.59 µM	
CO/N=C1/c2sccc2[C@H](NC(=O)CNC(=O)OC(C)(C)C)[C@@H]1O	> 100 µM	> 100 µM	
O=C(O)c1ccc(NS(=O)(=O)Cc2ccccc2)cc1	> 100 µM	> 100 µM	

SMILES	TGI [1]	TGI [2]	other results
C/C(=N/NC(=S)Nc1cccc(C)c1)c1ccccn1	14.3 µM	5.62 µM	
CCOc1ccc(N=C/C=C(\Cl)c2ccc3ccccc3c2)cc1	35.7 µM	39 µM	
Cc1oc2nc(N(C)C)n3nnnc3c2c1C	> 100 µM	> 100 µM	
N#Cc1c(OCCF)c2ccccc2n2c1nc1ccccc12	> 100 µM	52.3 µM	
O=C(OCc1ccccc1)OOC(=O)OCc1ccccc1	> 100 µM	> 100 µM	TGI [8]: > 100 µM; TGI [3]: > 100 µM; TGI [5]: > 100 µM; TGI [6]: > 100 µM; TGI [7]: > 100 µM; TGI [14]: > 100 µM
C[C@]12CC/C(=N\O)C=C1CC[C@@H]1[C@@H]2CC[C@]2(C)C(=N/O)/C(=C/c3cccnc3)C[C@@H]12	> 100 µM	82.8 µM	
c1ccc(N=c2snc(-c3ccccc3)s2)cc1	> 100 µM	> 100 µM	TGI [8]: > 100 µM; TGI [3]: > 100 µM; TGI [4]: > 100 µM; TGI [9]: > 100 µM; TGI [5]: > 100 µM; TGI [6]: > 100 µM; TGI [7]: > 100 µM; TGI [14]: > 100 µM
c1ccc2c(c1)CCCN1CCc3ccccc3C21 (stereo unspecified)	> 100 µM	46.5 µM	
COc1cc([C@@H]2c3cc4c(cc3C[C@H]3COC(=O)[C@@H]32)OCO4)cc(OC)c1OC	> 7.93 µM	0.00812 µM	TGI [8]: > 50 µM; TGI [3]: 0.0167 µM; TGI [4]: > 4.13 µM; TGI [9]: > 50 µM; TGI [7]: > 50 µM; TGI [10]: > 15.8 µM; TGI [11]: 0.502 µM; GI50 [2]: 0.00279 µM and 0.0062 µM; TGI [12]: > 3.86 µM; GI50 [1]: 0.00666 µM; TGI [14]: > 50 µM; TGI [13]: 1.88 µM
O=C(CCc1ccc(O)cc1)c1c(O)cc(O)cc1OC1OC(CO)C(O)C(O)C1O (stereo unspecified)		> 100 µM	
Nc1ncnc2c1ncn2C(=O)NC12CC3CC(CC(C3)C1)C2	> 100 µM	> 100 µM	
CC(C)CCNC(=O)c1ccc(CNC(=O)/C=C/c2ccc(OCc3ccccc3)cc2)cc1	> 100 µM		
CCn1c(=O)c2c3cc(O)ccc3oc2c2ccc(O)cc21	> 100 µM	73 µM	
Cc1cc(O)cc(O)c1N=Nc1ccc([N+](=O)[O-])cc1	> 100 µM	49.9 µM	
Cc1ccc(C(=O)Nc2ccc(CP(=O)(O)O)cc2)cc1NC(=O)c1cccc(NC(=O)Nc2cccc(C(=O)Nc3cc(C(=O)Nc4ccc(CP(=O)(O)O)cc4)ccc3C)c2)c1	> 100 µM	> 100 µM	
CC1CC(C#N)=C2NCCCCN2C1=O (stereo unspecified)	> 100 µM	> 100 µM	
N#CSCc1cccc(Nc2cc(=O)[nH]c(=O)[nH]2)c1	> 100 µM	98.6 µM	
COc1ccc(CNc2nc3ccc(C(F)(F)F)cc3nc2-c2ccccc2)cc1OC	> 100 µM	> 100 µM	TGI [4]: > 100 µM; TGI [9]: > 100 µM; TGI [5]: > 100 µM; TGI [6]: > 100 µM; TGI [7]: > 100 µM; TGI [15]: > 100 µM; TGI [14]: > 100 µM; TGI [13]: > 100 µM
COc1cccc(C2c3cc4c(cc3OC(N3CCCC3)C2C)OCO4)c1OC (stereo unspecified)	5.33 µM	16.2 µM	
CC1=C2c3ccccc3N(C(=O)/C=C/C(=O)O)[C@H]2[C@H]2C(=O)OC(=O)[C@H]2C1	> 10 µM	> 10 µM	
CCOC(=O)c1c(SCCN2CCCC2)n(-c2ccccc2)c(=S)n(-c2ccccc2)c1=O	31.2 µM	4.86 µM	
CC(=O)OCC1OC(n2c(=S)[nH]c(-c3ccccc3)c(C#N)c2=O)C(OC(C)=O)C(OC(C)=O)C1OC(C)=O (stereo unspecified)	> 100 µM	> 100 µM	
O=C(O)Cc1ccc2nc(COC(=O)c3ccccc3)sc2c1	> 100 µM		
CCOC(=O)C1C(=O)CC(O)(c2ccccc2)C(C(=O)OCC)C1c1ccc(OC)cc1 (stereo unspecified)	> 72.5 µM	40.9 µM	
Cc1nc2cc(C(F)(F)F)ccc2[nH]c1=O	> 100 µM	> 100 µM	

SMILES	TGI [1]	TGI [2]	other results
CCOC(=O)c1cnc2[nH]ccn2c1=O	> 10 µM	> 10 µM	
Cc1cccc(C[C@@]2(SCc3ccccc3)C(C)(C)[C@@H]3CC[C@@]2(C)C3)n1	33.1 µM	55.1 µM	
O=C1/C(=C/c2ccc(F)cc2)CNC/C1=C\c1ccc(F)cc1	6.2 µM	2.39 µM	
N#CC(C#N)=C1CCCS(=O)(=O)c2ccccc21	> 100 µM	> 100 µM	
COC(=O)CCCC(=O)C(=Nc1c(Cl)cccc1Cl)NNc1ccc(Cl)cc1	> 100 µM	> 100 µM	
COC(=O)C1CC(C=[N+](C)C)=C(SC)N1 (stereo unspecified)	> 100 µM		
CC1=CC(=O)N(n2c(C)n[nH]c2=O)C1=O	> 100 µM	> 100 µM	
CC1=CC=CC(C)(C)CC1(O[Si](C)(C)C)C(F)(F)F (stereo unspecified)	> 100 µM	> 100 µM	
O=C(/C=C/c1cccs1)c1ccc(Cl)cc1	> 100 µM	> 100 µM	
O=C(O[C@H](/C=C/c1ccccc1)P1(=O)N(Cc2ccccc2)[C@@H]2CCCC[C@H]2N1Cc1ccccc1)c1ccccc1	> 100 µM	22.2 µM	
C=CCCCC12CCCc3cccc(c31)NC2=O (stereo unspecified)	61.9 µM	47.4 µM	TGI [8]: 42.4 µM; TGI [3]: 33 µM; TGI [5]: 47 µM; TGI [15]: 55.6 µM; TGI [13]: 41.7 µM
O=c1nc2c(c(-c3cccc(Cl)c3)[nH]1)COC/C2=C\c1cccc(Cl)c1	> 100 µM	> 100 µM	
O=C1OC[C@@H]2Cc3c([nH]c4ccccc34)[C@@H](c3ccc(O)cc3)N12	> 100 µM	> 74 µM	
O=C1C(Cl)N(c2ccccc2)C1c1c[nH]c2ccccc12 (stereo unspecified)	> 100 µM	> 100 µM	TGI [3]: > 100 µM; TGI [5]: > 100 µM; TGI [6]: > 100 µM; TGI [7]: > 100 µM; TGI [13]: > 100 µM
CCOP(=O)(OCC)/C(F)=C/c1ccccc1	> 100 µM	> 100 µM	
Cc1nc(Cl)c(CBr)c(Cl)n1	11.2 µM	3.72 µM	
CC(=O)Nc1ccc(Cl)c(Cl)c1	> 100 µM	> 100 µM	TGI [8]: > 100 µM; TGI [3]: > 100 µM; TGI [4]: > 100 µM; TGI [5]: > 100 µM; TGI [6]: > 100 µM; TGI [7]: > 100 µM; TGI [14]: > 100 µM
CN1C(=O)CN(NC(=O)C2=C(O)c3ccc(Br)cc3S(=O)(=O)N2)C1=S	> 100 µM		
O=C1/C(=C/c2ccc(Br)s2)NC(=S)N1CN1CCOCC1	> 100 µM		
COc1ccc(NC2Oc3cc4c(cc3C(c3cc(OC)c(OC)c(OC)c3)C2C)OCO4)cc1 (stereo unspecified)	> 100 µM	0.492 µM	
CCOC(=O)C(=O)N1C(C)=C(C(=O)OCC)CC(C(=O)OCC)=C1C	> 100 µM	> 100 µM	
CN1CN(c2ccccc2)C2(CCN(CCCC3(c4cccs4)OCCO3)CC2)C1=O	> 100 µM	> 100 µM	
C(=Nc1ccc(-c2nc3ccccc3s2)cc1)c1ccco1	> 100 µM	> 100 µM	
